From patent publication US9549941B2, “Compositions and methods for treating hepatitis C virus” (priority 2011, dated 2017)

Legend:
[1] = Chemical stability of GS-7977 Form 6 on open storage; format: physicochemical; conditions: opened conditions at 40° C./75% RH for 30 days
Source text: (§1) In one aspect, the disclosed composition comprises polymorphic Form 6 of GS-7977.

[2] = Moisture sorption of GS-7977 Form 6; format: physicochemical
Source text: as §1

[3] = test system: mixture of 50% S282T and 50% WT in GT2a replicons; assay: Long-term passaging study with deep sequencing; format: cell-based, hepatitis C virus; conditions: after fifteen days
Source text: (§2) In vitro studies have shown that S282T is the primary mutation selected by GS-7977 in HCV genotype 1a, 1b and 2a replicon cells. (Lam et al., J. Virology (2011) 85(23): 12334-12342; Lam et al., Antimicrob. Agents Chemother. (2012) 56(6): 3359-3368.) S282T mutations in NS5B were created by site-directed mutagenesis in 1a-H77, 1b con-1, and 2a JFH1 sub-genomic replicons. 1b con-1-based chimeric replicons containing 2b, 3a, 4a, 5a, or 6a NS5B were also engineered to harbor the S282T mutation. […] Relative percentages of mutant and WT were assessed by deep sequencing.
(See also Han et al., 63rd Annual Meeting of the American Association for the Study of Liver Diseases, Poster 1078, Nov. 11, 2012.)

[4] = test system: 1b con-1-based chimeric replicon containing 5a NS5B, wild-type; assay: Transient replicon assay; format: cell-based; conditions: Hepatitis C virus, read-out: EC50 WT
Description: as §2, with “(Lam” for “In vitro studies have shown that S282T is the primary mutation selected by GS-7977 in HCV genotype 1a, 1b and 2a replicon cells. (Lam”

[5] = test system: 1b con-1-based chimeric replicon containing 6a NS5B, wild-type; assay: Transient replicon assay; format: cell-based; conditions: Hepatitis C virus, read-out: EC50 WT
Description: as §2, with “(Lam” for “In vitro studies have shown that S282T is the primary mutation selected by GS-7977 in HCV genotype 1a, 1b and 2a replicon cells. (Lam”

[6] = test system: 1a-H77 sub-genomic replicon, wild-type NS5B; assay: Transient replicon assay; format: cell-based; conditions: Hepatitis C virus, read-out: EC50 WT
Description: as §2, with “(Lam” for “In vitro studies have shown that S282T is the primary mutation selected by GS-7977 in HCV genotype 1a, 1b and 2a replicon cells. (Lam”

[7] = test system: 1a-H77 sub-genomic replicon, NS5B S282T; assay: microbe, parasite or virus in culture; format: cell-based, hepatitis C virus; conditions: Hepatitis C virus, read-out: EC50 S282T
Description: as §2, with “(Lam” for “In vitro studies have shown that S282T is the primary mutation selected by GS-7977 in HCV genotype 1a, 1b and 2a replicon cells. (Lam”

[8] = test system: Hepatitis C virus; conditions: ribavirin alone, patients with CHC; cited from earlier work

Structure (SMILES)	chemical stability [1]	hygroscopicity [2]	moisture sorption ([2]; room temperature and 90% RH)	population WT [3]	EC50 [4]	EC50 [5]	EC50 [6]	EC50 [7]	effect on HCV RNA levels [8]
CC(C)OC(=O)[C@H](C)N[P@](=O)(OC[C@H]1O[C@@H](n2ccc(=O)[nH]c2=O)[C@](C)(F)[C@@H]1O)Oc1ccccc1 [Form 6]	chemically stable	not hygroscopic	less than 0.2%						
NC(=O)c1ncn([C@@H]2O[C@H](CO)[C@@H](O)[C@H]2O)n1 [Ribavirin, 1-β-D-ribofuranosyl-1H-1,2,4-triazole-3-carboxamide, reference compound]				96%	1.9 nM	5.3 nM	21 nM	5 nM	did not reduce HCV RNA levels during or after therapy
